The record followed here is patent US20160355530A1, “HEPATITIS C INHIBITORS AND USES THEREOF” (AbbVie Inc., priority 2010, published 2016).

Assay [1] has as its target T1, HCV NS5B polymerase 1a-H77 (Hepatitis C virus genotype 1a, UniProt P27958).
T1 construct: six-histidine tag; made in house; host or cells: E. coli
Kind of assay: biochemical. The following applies: enzyme, strain 1a H77; read-out: HCV Polymerase Strain 1a H77 IC50. Details: species or system HCV genotype 1a. In short, it runs like this: (§1)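 Incorporation of [3H]UTP (0.284 μM), alongside 20 μM each CTP and ATP, into RNA copied from a 5 nM 2.1 kb genotype 1b negative-strand template was measured after 3 h at 30° C using purified His-tagged NS5B truncated at residue 570. Product was spermine-precipitated, filtered and scintillation-counted; nonlinear regression gave IC50.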

For assay [2], the target named is T2, HCV NS5B polymerase 1a-H77-C316Y (Hepatitis C virus genotype 1a, UniProt P27958, C2736Y).
T2 construct: six-histidine tag; made in house; host or cells: E. coli
Kind of assay: biochemical. Details: species or system HCV genotype 1a. Put shortly:
as §1

The subject of assay [3] is HCV NS5B polymerase 1a-H77-C316Y. Kind of assay: biochemical. Also noted: species or system HCV genotype 1a. The following applies: ratio of enzyme IC50s, 1a H77-C316Y / 1a H77. In short, it runs like this:
as §1

In assay [4] the target is T3, HCV NS5B polymerase 1b BK strain (Hepatitis C virus genotype 1b, UniProt P26663).
T3 construct: six-histidine tag; made in house; host or cells: E. coli
Kind of assay: HCV NS5B polymerase enzymatic inhibition assay, strain 1b BK. The following applies: enzyme, strain 1b BK; read-out: HCV Polymerase Strain 1b BK IC50. It counts as biochemical. In short, it runs like this: as §1

The test system of assay [5] is HCV 1a-H77 subgenomic replicon. Kind of assay: microbe, parasite or virus in culture. The following applies: Hepatitis C virus, stable replicon. The class given is cell-based, HCV genotype 1a. (A replicon is a self-replicating genome or part of one, used to study replication in cells.)
For assay [6], the system named is HCV 1b-BB7 subgenomic replicon. In words: microbe, parasite or virus in culture. It counts as cell-based, HCV genotype 1b. The following applies: Hepatitis C virus, stable replicon.
The subject of assay [7] is chimeric replicon with 2a-J6CF-derived NS5B. Kind of assay: microbe, parasite or virus in culture. The class given is cell-based, HCV genotype 2a. The following applies: Hepatitis C virus, read-out: 2a chimera 5% FBS EC50.
Assay [8] concerns chimeric replicon with genotype 2b NS5B. Kind of assay: microbe, parasite or virus in culture. The class given is cell-based, HCV genotype 2b. The following applies: Hepatitis C virus, read-out: 2b chimera 5% FBS EC50.
For assay [9], the system named is chimeric replicon with genotype 3a NS5B. Kind of assay: microbe, parasite or virus in culture. It counts as cell-based, HCV genotype 3a. The following applies: Hepatitis C virus, read-out: 3a chimera 5% FBS EC50.
In assay [10] the test system is chimeric replicon with genotype 4a NS5B. Kind of assay: microbe, parasite or virus in culture. The class given is cell-based, HCV genotype 4a. The following applies: Hepatitis C virus, read-out: 4a chimera 5% FBS EC50.
Where [11] appears, read: 5% FBS, absence of human plasma, read-out: Stable Replicon 1a H77 5% FBS EC50.
[12] abbreviates: strain 1a H77, 5% FBS + 40% human plasma, read-out: 1a H77 5% FBS + 40% Human Plasma EC50.
The mark [13] stands for this setting: strain 1a H77, 5% FBS, no human plasma, read-out: 1a H77 5% FBS EC50.
[14] abbreviates: strain 1a H77, 5% FBS, read-out: 1a H77 5% FBS EC50.
[15] abbreviates: strain 1b BB7, 5% FBS + 40% human plasma, read-out: 1b BB7 5% FBS + 40% Human Plasma EC50.
Setting [16] is: strain 1b BB7, 5% FBS, no human plasma, read-out: 1b BB7 5% FBS EC50.
[17] abbreviates: strain 1b BB7, 5% FBS, read-out: 1b BB7 5% FBS EC50.

Read-outs that look alike come from different tables or passages of the source.

T1 sequence (P27958 2421-2990): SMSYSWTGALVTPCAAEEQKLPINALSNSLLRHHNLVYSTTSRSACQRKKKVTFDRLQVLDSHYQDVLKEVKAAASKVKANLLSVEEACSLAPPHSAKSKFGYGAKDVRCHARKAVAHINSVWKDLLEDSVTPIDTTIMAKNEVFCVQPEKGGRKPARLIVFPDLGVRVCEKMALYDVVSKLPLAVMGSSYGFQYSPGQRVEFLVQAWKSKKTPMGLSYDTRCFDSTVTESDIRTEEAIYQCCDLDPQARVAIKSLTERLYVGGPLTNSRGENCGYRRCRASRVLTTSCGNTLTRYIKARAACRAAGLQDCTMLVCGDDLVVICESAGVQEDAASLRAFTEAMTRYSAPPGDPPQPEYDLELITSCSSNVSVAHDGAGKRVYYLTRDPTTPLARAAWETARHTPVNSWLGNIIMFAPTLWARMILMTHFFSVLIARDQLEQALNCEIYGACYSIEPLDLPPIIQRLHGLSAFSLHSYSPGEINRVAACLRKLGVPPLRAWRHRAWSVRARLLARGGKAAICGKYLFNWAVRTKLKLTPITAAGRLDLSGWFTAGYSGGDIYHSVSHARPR
T2 sequence (P27958 2421-2990 C2736Y): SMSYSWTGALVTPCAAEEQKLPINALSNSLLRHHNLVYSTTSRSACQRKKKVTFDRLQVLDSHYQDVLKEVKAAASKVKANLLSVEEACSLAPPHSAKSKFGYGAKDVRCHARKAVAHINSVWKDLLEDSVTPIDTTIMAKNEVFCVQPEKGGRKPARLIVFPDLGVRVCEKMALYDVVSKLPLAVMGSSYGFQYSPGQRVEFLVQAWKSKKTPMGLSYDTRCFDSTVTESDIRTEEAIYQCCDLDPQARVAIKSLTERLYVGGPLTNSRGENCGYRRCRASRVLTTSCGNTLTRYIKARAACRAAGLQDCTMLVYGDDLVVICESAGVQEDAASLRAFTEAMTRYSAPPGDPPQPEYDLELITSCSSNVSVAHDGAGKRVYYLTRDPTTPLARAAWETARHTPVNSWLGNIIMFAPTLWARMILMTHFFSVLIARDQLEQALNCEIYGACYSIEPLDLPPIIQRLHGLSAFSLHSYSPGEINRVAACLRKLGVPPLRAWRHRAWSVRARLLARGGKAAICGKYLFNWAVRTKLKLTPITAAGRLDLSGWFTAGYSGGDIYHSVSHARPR
T3 sequence (P26663 2420-2989): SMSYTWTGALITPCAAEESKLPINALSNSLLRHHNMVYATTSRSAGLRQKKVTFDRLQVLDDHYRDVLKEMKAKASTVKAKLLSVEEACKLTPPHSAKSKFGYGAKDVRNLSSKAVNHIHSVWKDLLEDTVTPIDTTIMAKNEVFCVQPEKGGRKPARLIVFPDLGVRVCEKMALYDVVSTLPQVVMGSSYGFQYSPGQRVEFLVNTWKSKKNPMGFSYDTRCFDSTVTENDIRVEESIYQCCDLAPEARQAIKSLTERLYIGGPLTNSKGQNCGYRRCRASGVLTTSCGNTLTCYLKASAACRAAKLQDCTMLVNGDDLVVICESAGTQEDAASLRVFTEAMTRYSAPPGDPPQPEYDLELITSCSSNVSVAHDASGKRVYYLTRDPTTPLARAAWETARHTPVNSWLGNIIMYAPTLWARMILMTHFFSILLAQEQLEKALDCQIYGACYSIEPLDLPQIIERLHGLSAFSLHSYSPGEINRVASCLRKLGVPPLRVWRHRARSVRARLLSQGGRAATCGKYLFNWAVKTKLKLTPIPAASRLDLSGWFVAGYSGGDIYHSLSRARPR

With `CS(=O)(=O)N(CCCF)c1cc2oc(-c3ccc(F)cc3)c(-c3ncc[nH]3)c2cc1C1CC1` [Example 85, N-[5-cyclopropyl-2-(4-fluorophenyl)-3-(1H-imidazol-2-yl)-1-benzofuran-6-yl]-N-(3-fluoropropyl)methanesulfonamide], the values for the IC50 in [1], in [2] and in assay [4] were 4.5 nM, 88 nM and 18 nM, respectively. Besides, the “C316Y/1a Fold Resistance” value in assay [3] stood at 20 fold. The EC50 (commonly the concentration that produces a half-maximal response) was 21.8 nM in [5] (setting [11]); 162 nM in assay [5] (setting [12]); 21.8 nM in [5] (setting [13]); 21.8 nM in assay [5] (setting [14]); 95 nM in assay [6] (setting [15]); 9.8 nM in [6] (setting [16]). Further, the EC50 amounted to 9.8 nM in assay [6] (setting [17]); 66.2 nM in assay [7]; 131 nM in assay [8]; 6.4 nM in assay [9]; 73.8 nM in assay [10].

Consider `CS(=O)(=O)N(CCCOc1ccccc1)c1cc2oc(-c3ccc(F)cc3)c(-c3ncc[nH]3)c2cc1C1CC1` [Example 37, N-[5-cyclopropyl-2-(4-fluorophenyl)-3-(1H-imidazol-2-yl)-1-benzofuran-6-yl]-N-(3-phenoxypropyl)methanesulfonamide], for which the figures for the 50% inhibitory concentration (IC50) in assay [1], in assay [2] and in assay [4] were 5.5 nM, 144 nM and 24 nM, respectively. Also, the “C316Y/1a Fold Resistance” value in assay [3] was found to be 26 fold. Moreover, the half-maximal effective concentration (EC50) came to 348 nM in assay [5] (setting [11]); 1390 nM in assay [5] (setting [12]); 348 nM in [5] (setting [13]); 348 nM in assay [5] (setting [14]); 529 nM in assay [6] (setting [15]); 145 nM in assay [6] (setting [16]). Further, the EC50 in [6] (setting [17]) was found to be 145 nM; in assay [7], 522 nM; in assay [8], 751 nM; in [9], 166 nM; in assay [10] it was 598 nM.

Take `CCS(=O)(=O)CCN(c1cc2oc(-c3ccc(F)cc3)c(C3=NOCCN3)c2cc1C1CC1)S(C)(=O)=O` [Example 142, N-[5-cyclopropyl-3-(5,6-dihydro-4H-1,2,4-oxadiazin-3-yl)-2-(4-fluorophenyl)-1-benzofuran-6-yl]-N-[2-(ethylsulfonyl)ethyl]methanesulfonamide]: the concentration for half-maximal inhibition (IC50) (usually the concentration at which inhibition is half-maximal) in [1] came to 7 nM; in assay [2], 59 nM; in assay [4] it was 42 nM. Moreover, in assay [3], the “C316Y/1a Fold Resistance” value worked out at 8 fold. Moreover, the half-maximal effective concentration (EC50) in assay [5] (setting [11]) was 11.5 nM; in assay [5] (setting [12]), 41 nM; in assay [5] (setting [13]), 11.5 nM; in assay [5] (setting [14]), 11.5 nM; in assay [6] (setting [15]), 110 nM; in assay [6] (setting [16]), 11 nM. Also, the half-maximal effective concentration (EC50) in assay [6] (setting [17]) amounted to 11 nM; in assay [7] it was 193 nM; in assay [8] it was 368 nM; in [9], 21 nM; in assay [10] it was 161 nM.

With `CS(=O)(=O)N(CCC(F)(F)F)c1cc2oc(-c3ccc(F)cc3)c(C3=NOCCN3)c2cc1C1CC1` [Example 118, N-[5-cyclopropyl-3-(5,6-dihydro-4H-1,2,4-oxadiazin-3-yl)-2-(4-fluorophenyl)-1-benzofuran-6-yl]-N-(3,3,3-trifluoropropyl)methanesulfonamide], the IC50 in assay [1] turned out to be 5.9 nM; in assay [2], 114 nM; in [4] it was 49 nM. In addition, the “C316Y/1a Fold Resistance” value in assay [3] turned out to be 19 fold. Moreover, the EC50 amounted to 19.8 nM in assay [5] (setting [11]); 165 nM in assay [5] (setting [12]); 19.8 nM in assay [5] (setting [13]); 19.8 nM in assay [5] (setting [14]); 253 nM in assay [6] (setting [15]); 26 nM in [6] (setting [16]). Moreover, the 50% effective concentration (EC50) in [6] (setting [17]) was determined as 26 nM; in assay [7] it was 230 nM; in [8], 477 nM; in assay [9], 47 nM; in [10], 449 nM.

As to `CS(=O)(=O)N(CCCc1nsc(=O)[nH]1)c1cc2oc(-c3ccc(F)cc3)c(C3=NOCCN3)c2cc1C1CC1` [Example 184, N-[5-cyclopropyl-3-(5,6-dihydro-4H-1,2,4-oxadiazin-3-yl)-2-(4-fluorophenyl)-1-benzofuran-6-yl]-N-[3-(5-oxo-4,5-dihydro-1,2,4-thiadiazol-3-yl)propyl]methanesulfonamide], the IC50 in [1] was determined as 17 nM; in [2] it was 599 nM; in assay [4] it was 156 nM. In assay [3], the “C316Y/1a Fold Resistance” value is recorded as 35 fold. Further, the EC50 in [5] (setting [11]) was 69.7 nM; in [5] (setting [12]), 1870 nM; in assay [5] (setting [13]), 69.7 nM; in [5] (setting [14]) it was 69.7 nM; in [6] (setting [15]) it was 1090 nM; in assay [6] (setting [16]), 28 nM. Further, the EC50 amounted to 28 nM in [6] (setting [17]); 539 nM in assay [7]; 353 nM in assay [8]; 84 nM in assay [9]; 507 nM in [10].

On to `C=CCN(c1cc2oc(-c3ccc(F)cc3)c(-c3ncc[nH]3)c2cc1C1CC1)S(C)(=O)=O` [Example 57, N-allyl-N-[5-cyclopropyl-2-(4-fluorophenyl)-3-(1H-imidazol-2-yl)-1-benzofuran-6-yl]methanesulfonamide], for which the IC50 in [1] stood at 3 nM; in assay [2], 232 nM; in assay [4] it was 11 nM. The “C316Y/1a Fold Resistance” value in [3] is on record as 77 fold. In addition, the EC50 was found to be 35.2 nM in assay [5] (setting [11]); 306 nM in assay [5] (setting [12]); 35.2 nM in assay [5] (setting [13]); 35.2 nM in assay [5] (setting [14]); 69 nM in [6] (setting [15]); 17.7 nM in assay [6] (setting [16]). The half-maximal effective concentration (EC50) is 17.7 nM in [6] (setting [17]); 51.5 nM in [7]; 72.4 nM in assay [8]; 9.1 nM in assay [9]; 138 nM in assay [10].

For the molecule `CS(=O)(=O)N(CCCc1nnn[nH]1)c1cc2oc(-c3ccc(F)cc3)c(-c3ncc[nH]3)c2cc1C1CC1` [Example 174, N-[5-cyclopropyl-2-(4-fluorophenyl)-3-(1H-imidazol-2-yl)-1-benzofuran-6-yl]-N-[3-(1H-tetrazol-5-yl)propyl]methanesulfonamide], the concentration for half-maximal inhibition (IC50) in [1] was found to be 3.5 nM; in assay [2], 40 nM; in [4], 18.6 nM. For the same molecule, the “C316Y/1a Fold Resistance” value in [3] was determined as 12 fold. The EC50 came out at 320 nM in assay [5] (setting [11]); 4780 nM in [5] (setting [12]); 320 nM in assay [5] (setting [13]); 320 nM in assay [5] (setting [14]); 3690 nM in assay [6] (setting [15]); 192 nM in [6] (setting [16]). Moreover, the concentration for a half-maximal effect (EC50) in [6] (setting [17]) is 192 nM; in [7], 1000 nM; in assay [8], 1000 nM; in assay [9] it was 290 nM; in assay [10], greater than 1000 nM.

`CS(=O)(=O)N(CCN1CCCC1)c1cc2oc(-c3ccc(F)cc3)c(C3=NOCCN3)c2cc1C1CC1` [Example 128, N-[5-cyclopropyl-3-(5,6-dihydro-4H-1,2,4-oxadiazin-3-yl)-2-(4-fluorophenyl)-1-benzofuran-6-yl]-N-[2-(pyrrolidin-1-yl)ethyl]methanesulfonamide]: the IC50 in assay [1] was determined as 45.6 nM; in assay [2], 995 nM; in assay [4] it was 667 nM. Moreover, the “C316Y/1a Fold Resistance” value in assay [3] is listed as 22 fold. Moreover, the EC50 in assay [5] (setting [11]) came out at 161 nM; in [5] (setting [12]) it was 383 nM; in assay [5] (setting [13]), 161 nM; in [5] (setting [14]), 161 nM; in assay [6] (setting [15]), 268 nM; in assay [6] (setting [16]), 44 nM. Moreover, the concentration for a half-maximal effect (EC50) is 44 nM in [6] (setting [17]); 699 nM in [7]; 839 nM in assay [8]; 216 nM in assay [9]; greater than 1000 nM in assay [10].
